According to patent publication US20210393597A1, “TARGETING THE TRANSCRIPTION FACTOR NF-KB WITH HARMINE” (DANA-FARBER CANCER INSTITUTE, INC., priority 2018, published 2021):
Entries after “also recorded” stand apart in the source; their conditions may differ.

Key:
Format in all cases: cell-based
[1] = tested on: NF-κB target genes (BIRC3, TNFAIP3, IL-8); experiment: qRT-PCR of NF-κB target gene expression in cancer cells
Description: RNA was isolated using an RNeasy kit (Qiagen, Valencia, Calif.). cDNA was generated using the Taqman reverse transcription kit (Applied Biosystems, Foster City, Calif.). qRT-PCR was performed using Sybr Select or Power Sybr green master mix (Applied Biosystems). Samples were plated in triplicate and run on a 7300 or 7500 real time PCR machine (Applied Biosystems), using the indicated primers (Table 2). Target gene expression was normalized to actin, HPRT, or GAPDH. Data are expressed as mean fold change+/−SEM and are representative of at least two independent biological replicates.

NF-κB [2] = experiment: NF-κB-dependent luciferase reporter assay in NF-κB-Luc cells (Prestwick library screen and confirmation); conditions: drug 1 hour, then TNF stimulation
Text: (§1) Cells were transfected with firefly luciferase plasmids for STAT3 (m67-Luc) or NF-KB-Luc (Stratagene, Santa Clara, Calif.) and a Renilla luciferase plasmid (Promega, Madison, Wis.). The NF-κB-responsive cell line was generated with an NF-κB-responsive reporter plasmid (catalogue no. 219078; Strategene, La Jolla, Calif., incorporated herein by reference). Cells were also co-transfected with a plasmid expressing Renilla luciferase under a constitutive promoter for normalization (pRL-TK plasmid; Promega; Madison, Wis., incorporated herein by reference). Dual luciferase assays were performed as described (Walker et al., 2007 Oncogene, 26: 224-233, incorporated herein by reference).
(§2) To identify NF-κB inhibitors, the Prestwick Chemical Library, which contains 1120 bioactive compounds, was screened for activity against cells expressing NF-κB-dependent luciferase (Nelson et al., 2008 Blood, 112(13):5095-102). To confirm the specificity of identified compounds, NF-κB-Luc and STAT3-Luc cells were treated with the indicated doses of drug for one hour followed by stimulation with TNF or IL-6 respectively for 6 hours. Luciferase activity was assessed using the Bright-Glo Luciferase Assay system (Promega).

STAT3 = experiment: STAT3-dependent luciferase reporter counterscreen in STAT3-Luc cells; conditions: drug one hour, then IL-6 for 6 hours
Description: as §2

multiple myeloma cells = experiment: Quantitation of viable cell number (Cell-TiterGlo), multiple myeloma cells
Description: (§3) Cells were treated with the indicated drugs in 96 well plates for 48 to 72 hours. Viable cell number was assessed using ATP-dependent bioluminescence (Cell-TiterGlo; Promega). Data are expressed as average+/−SD of at least two replicates, and are representative of at least two separate experiments.

[3] = tested on: p65 and p50 NF-κB subunits; experiment: Cellular fractionation and immunoblot of NF-κB subunits upon TNF stimulation, OVCAR8 cells; conditions: 24 hours, then TNF
Description: (§4) Immunoblots were performed as described (Nelson et al., 2008 Blood, 112: 5095-5102). Nuclear and cytoplasmic fractions were isolated using the Nuclear Extract Kit (Active Motif North America, Carlsbad, Calif.). Antibodies were used recognizing phospho-tyrosine STAT3 (9131), PARP (9542), p65 (8242), RelB (4922) (Cell Signaling; Beverly, Mass.); actin (A-5316) and tubulin (T-5168) (Sigma); and STAT3 (sc-482), p50 (sc-7178), and calnexin (sc-11397) (Santa Cruz Biotechnology; Santa Cruz, Calif.).

p65 [4] = experiment: Chromatin immunoprecipitation at NF-κB binding sites of target genes, OVCAR8 cells; conditions: harmine pretreatment, TNF 30 minutes
Description: SKBR3 cells stimulated with IL-6 for 30 minutes, OVCAR8 cells treated with harmine for 16 hours and then stimulated with TNF for 30 minutes, or U266 cells treated with Jak inhibitor 1 for 3 hours were analyzed by ChIP. Cross-linking was performed with 1% formaldehyde (0.37% for U266 cells) for 10 min at room temperature, followed by quenching of formaldehyde using 0.125 M glycine. ChIP was performed essentially as described (Nelson et al., 2004 J Biol Chem, 279(52):54724-30). Chromatin was sheared by sonication using a Qsonica Q700 sonicator with a microtip at approximately 75% amplitude. Anti-STAT3 antibody as described above, anti-p65 (Santa Cruz Biotechnology, sc-109), or anti-RNA polymerase II (Santa Cruz Biotechnology, sc-9001) were used. ChIP product was analyzed by qPCR using the following primers: RELB ([…] (SEQ ID NO: 34) and […] (SEQ ID NO: 35)), IL8 ([…] (SEQ ID NO: 36) and […] (SEQ ID NO: 37)), BIRC3 ([…] (SEQ ID NO: 38) and […] (SEQ ID NO: 39)), TNFAIP3 ([…] (SEQ ID NO: 40) and […] (SEQ ID NO: 41)). Data were normalized relative to input and a nonbinding region of the rhodopsin (RHO) gene (Walker et al., 2013 Mol Cell Biol, 33(15):2879-90).

INA6 cells = experiment: Apoptosis by PARP cleavage immunoblot, INA6 cells; conditions: 24 hours
Description: as §4

U266 and OVCAR8 cells = experiment: Quantitation of viable cell number, U266 and OVCAR8 cells, harmine with additional STAT3 inhibitors; conditions: U266, 15 μM harmine, 3 μM TG101348; OVCAR8, 15 μM harmine, 5 μM pimozide; 72 hours
Description: as §3

NF-κB [5] = experiment: Dual luciferase reporter assay, OVCAR8 cells transfected with NF-κB dependent reporter; conditions: 24 hours
Text: as §1

p65 [6] = experiment: Single cell nuclear translocation analysis, HeLa p65-EGFP cells; conditions: 1 uM, imaged 18 hours
Description: Hela cells stably expressing EGFP-tagged p65 were imaged for one hour prior to addition of either 1 uM Jak inhibitor 1 or 100 ng/mL TNF, and then for an additional 18 hours. Transmitted light and widefield epifluorescent images were captured at 10 min intervals using a BD Pathway 855 Bioimager with a 20× objective (0.75 NA; Olympus). Imaging was performed in an environmental chamber set to 37θC and 5% CO2. Five fields of view were analyzed per condition and the nuclear translocation of p65-EGFP was manually scored for each cell.

[7] = OVCAR8 cells, 24 hours, qRT-PCR

O=C(N/N=C/c1ccc([N+](=O)[O-])o1)c1ccc(O)cc1 [nifuroxazide]
NF-κB target gene expression ([1]; INA-6 MM cells, 22-24 hours): upregulation
NF-κB target gene expression [1, 7]: upregulation

COc1ccc2c(c1)[nH]c1c(C)nccc12 [harmine]
NF-κB-dependent luciferase activity (transcriptional activity of NF-κB) (NF-κB [2]): identified as an NF-κB inhibitor
NF-κB-dependent luciferase activity (transcriptional activity of NF-κB) (NF-κB [2]; listed as Harmine): inhibitor of NF-κB-dependent luciferase; also recorded: inhibited
STAT3-dependent luciferase activity (STAT3): little effect; also recorded: not inhibiting
cell killing in combination with Jak inhibitor 1 (relative viable cell number) (multiple myeloma cells; INA6, 5 μM harmine, 0.25 μM Jak inhibitor 1, 72 hours): synergistic cell killing
viability of multiple myeloma cells (relative viable cell number) (multiple myeloma cells; cells containing activated NF-κB (INA6, U266, MA/11.S), 72 hours): inhibited the viability
induction of NF-κB target genes induced by Jak inhibitor 1 ([1]; OVCAR8 cells, 24 hours, harmine together with Jak inhibitor 1): completely suppressed
NF-κB target gene expression [1, 7]: reduced; also recorded: inhibited
nuclear accumulation of p65 and p50 [3]: no effect
RNA polymerase II binding at NF-κB target genes (ChIP) (p65 [4]): reduced
p65 binding at NF-κB binding sites of target genes (ChIP) (p65 [4]): reduced
apoptosis measured by PARP cleavage, combination with Jak inhibitor 1 (INA6 cells): enhanced apoptosis
cell killing in combination with additional STAT3 inhibitors (relative viable cell number) (U266 and OVCAR8 cells): enhanced killing

CC(C)(C)c1nc2c3cc[nH]c(=O)c3c3cc(F)ccc3c2[nH]1 [Jak inhibitor 1]
NF-κB target gene expression (IL-8) ([1]; A498 renal carcinoma cells, 24 hours): enhanced
NF-κB target gene expression ([1]; INA-6 MM cells, 22-24 hours): enhanced
NF-κB target gene expression ([1]; MDA-MB-468 breast cancer cells, 1 μM, 28 hours): enhanced
NF-κB target gene expression [1, 7]: enhanced
NF-κB reporter luciferase activity (NF-κB [5]): enhanced
p65 nuclear translocation (p65 [6]): not significantly altered

CCN1/C(=C/C(C)=O)Sc2ccc(O)cc21 [INDY]
NF-κB target gene expression [1, 7]: did not inhibit
